The values that follow come from patent US5707821A, “Identification of phospholipase A2 inhibitors in Aβ peptide-mediated neurodegenerative disease” (priority 1995, dated 1998).

What all share (assay type): cell-based
Data set [1] concerns TNFα release by cultured human cortical microglia. Nature of the data set: TNF release from LPS-stimulated human cortical microglia. The procedure: (§1) Cultures of human cortical or hippocampal astrocytes and microglia were prepared using a modification of the procedure described for cortical neurons. Cortical tissue from fetuses of 16 to 20 weeks of gestation was washed 3 times in Ca^2+ /Mg^2+ free Hanks balanced salt solution (CMF HBSS) and then dissociated by repeated pipetting. The solution was brought to a final volume of 80 ml CMF HBSS for approximately 10 ml of tissue. DNase (Sigma) was added to a final concentration of 0.05 mg/ml. 20 ml of the solution was passed through one 100 μm nylon cell strained (Falcon). The cells were then centrifuged for 5 minutes at 200×G in an IEC Clinical Centrifuge and resuspended in a trypsin/EDTA solution (0.05% trypsin+0.53 mM EDTA in HBSS; Gibco) and incubated for 20 minutes at 37°C. (10 ml of trypsin was added per 2-3 ml of tissue). The trypsin was then inactivated by adding (MEM/FBS): Modified Eagle's Medium (MEM) containing 1% glucose, 1 mM sodium pyruvate, 1 mM glutamine, and supplemented with 10% fetal bovine serum (JRH). After adding a final concentration of 0.05 mg/ml DNase the cells were resuspended and then pelleted by centrifugation and resuspended in MEM/FBS. 1.6×10^8 cells were seeded in a T-150 tissue culture flask coated with polyethyleneimine (PEI). (10% PEI (Sigma) was diluted 1:10 in H2 O, filtered through a […] unit and then diluted into 150 mM sodium borate pH 8.5 at 1:100. The flasks were coated overnight at room temperature, washed two times in PBS and coated with 20 ml/flask of MEM/FBS at 37° C. for at least one hour prior to plating cells.) Cultures were maintained in a H2 O-saturated incubator with an atmosphere of 95% air/5% CO2 at 37° C. The culture medium was changed one and four days after plating and the cultures were then left undisturbed for at least one week. After approximately two weeks in vitro, the flasks were gently shaken and floating microglia were collected and centrifuged for 5 minutes at 200×G in an IEC Clinical Centrifuge. The microglia were reseeded in 96 well tissue culture plates at a density of 5,000-40,000 cells/well in 125 μl in MEM/FBS. Astrocyte cultures were prepared by multiple passaging of the established mixed brain cell cultures. Each T-150 was incubated for 3-4 minutes at 37°C. with a trypsin/EDTA solution (see above). The trypsin was then inactivated by adding MEM/FBS. The cells were triturated and then pelleted by centrifugation and resuspended in MEM/FBS. The cells from one T-150 were seeded at a 1:30 to 1:5 dilution in T-150's not coated. Just prior to confluency the cells were repassaged by trypsinization as described above. This process was repeated until the cultures were >98% pure astrocytes.
(§2) The effects of the benzenesulfonamide PLA2 inhibitor AN20606 and the selective cytosolic PLA2 inhibitor arachidonyl trifluoromethyl ketone (AN20579) were examined in cultured human cortical microglia for their selectivity for inhibiting microglia activation mediated by amyloid-βpeptide and lipopolysaccharides (LPS). LPS are a major constituent of the cell wall of gama-negative bacteria and are extensively used for generating inflammatory responses in cultured cells and in vivo.

For data set [2], the system named is IL-1β release by cultured human cortical microglia. The data set can be described thus: IL-1β release (ELISA) from Aβ1-40-stimulated human microglia. The procedure: as §1
Cultured microglial cells were treated with 50 μM of Aβ1-40 or vehicle only (Control). The levels of IL-1β, IL-6, and TNF-α released into the culture medium were determined by ELISA assay (R&D Systems) according to manufacturer's instructions.
The effect of two benzenesulfonamide inhibitors of PLA2 (European Patent Application 468 054) were examined on the activation of microglial cells by Aβ1-40 as in Example 1.
as §2

The test system of another data set is human cortical neurons. Nature of the data set: Compound toxicity to human cortical neurons in absence of Aβ1-40 (alamarBlue, 3 days). As to conditions: human, 4320 min. The procedure: Cultures of human cortical or hippocampal neurons were prepared using a modification of the procedure described in P. Seubert et al. (1992), Nature 359:325-327. Cortical or hippocampal tissue was dissociated by incubation in a trypsin/EDTA solution (0.05% trypsin +0.53 mM EDTA in HBSS; Gibco) for 20 minutes at 37° C. The trypsin was then inactivated by resuspending the cells in serum-containing medium (MEM/FBS): Modified Eagle's Medium (MEM) containing 1% glucose, 1 mM sodium pyruvate, 1 mM glutamine, and supplemented with 10% fetal bovine serum (Gibco). Cells were then pelleted by centrifugation and resuspended in a chemically-defined medium (MEM/B27): MEM containing B27 supplement (Gibco) in place of FBS. Polyethyleneimine (PEI)-coated 6.4-mm (96-well) dishes were rinsed once with MEM/FBS, and then seeded at 0.75-1.25×10^5 cells per well in 0.1 ml MEM/B27. Cultures were maintained in a H2 O-saturated incubator with an atmosphere of 95% air/5% CO2 at 37° C. The culture medium was exchanged twice weekly.
The alamarBlue™ assay incorporated a proprietary fluorometric/colorimetric metabolic indicator (Alamar Biosciences, Inc.). Viable cells convert alamarBlue™ from an oxidized (non-fluorescent, blue) form to a reduced (fluorescent, red) form. Assays were performed by replacing the culture media with a 10% alamarBlue™ solution in DMEM (rat cortical cultures) or MEM (human cortical cultures). Reduction of alamarBlue™ was determined spectrofluorometrically using a Millipore Cytofluor 2350 Scanner (excitation, […]; emission, 590 nm) and CytoCalc™ software (Millipore Corporation).
Human cortical neurons were treated with 50 μM Aβ1-40 and various inhibitors of PLA2 or PLC. Compounds were added at the time of Aβ1-40 treatment at concentrations 390 nM to 100 μM. Compounds were also added to neuronal cultures in the absence of Aβ1-40. Neuronal survival was determined after 3 days of treatment by alamarBlue®. IC50 is the dose of compound that inhibited Aβ-mediated neurotoxicity by 50%. […] Data represents the mean ± SD (n=3). ND, not detected at the concentration range used.

Molecules are shown by their SMILES.

Take `CN(C(=O)/C=C/c1ccc(S(C)(=O)=O)cc1)c1ccc(S(=O)(=O)NC2CCCCCC2)cc1` [AN20606, N-cycloheptyl-4-[N-methyl-N-[(E)-3-(4-methylsulfonylphenyl)-2-propenoyl]amino]benzenesulfonamide]: the “TNF Released” value in data set [1] (10 ng/ml LPS, inhibitor 20 μM where present) was found to be 632 ± 211 pg/mL. The activity at 20 µM came to 130% in data set [1] (Homo sapiens, Microglia, 10 ng/ml LPS + 20 μM inhibitor, read-out: TNF Released, percent in parentheses (relative to LPS alone)) and 6% in data set [2] (Homo sapiens, Microglia, 50 μM Aβ1-40 + 20 μM inhibitor, read-out: IL-1 Released, percent in parentheses (relative to Aβ1-40 alone)). In data set [1] (LPS stimulation), the “LPS-mediated cytokine release, TNF (in words)” value was “actually enhanced”. Besides, the “amount of IL-1β released into the medium (in words)” value in data set [2] (50 μM Aβ1-40, 1 day, compound 0, 5, 10, 20 μM, FIG. 2) is “marked and dose-dependent decrease”. For the same compound, the “IL-1 Released” value in data set [2] (50 μM Aβ1-40, inhibitor 20 μM where present) stood at 16.5 ± 6 pg/mL. In data set [2] (Aβ1-40 versus LPS stimulation), the “Aβ1-40-mediated IL-1β release, selectivity versus LPS (in words)” value was “selectively inhibited”. Besides, the “TD10 (concentration giving 10% loss of neuronal survival)” value in the data set with human cortical neurons is 98 µM.
